Where two headings read alike, the source gives them in different places. Where a SMILES comes first, the peptide text is derived from it.
Assays:
[1] = test system: human red blood cells (hRBC); type: cell-based; details: red cells of human, 1 h, 0.2 g/L
Experimental: (§1) Lyophilized peptides were weighed on a Microbalance (Mettler MT5) and dissolved in sterile water to a final concentration of 1 mg/mL. Stock solutions were kept at +4° C., light protected.
The peptides were tested for their hemolytic activity against human red blood cells (hRBC). Fresh hRBC were washed three times with phosphate buffered saline (PBS) and centrifuged for 5 min at 3000×g. Compounds (200 μg/mL) were incubated with 20% hRBC (v/v) for 1 h at 37° C. and shaking at 300 rpm. A value of 0% and 100% cell lyses, respectively, was determined by incubation of hRBC in the presence of PBS and 2.5% Triton X-100 in H2O, respectively. The samples were centrifuged, the supernatants were 8-fold diluted in PBS buffer and the optical densities (OD) were measured at 540 nm. The 100% lyses value (OD540H2O) gave an OD540 of approximately 0.5-1.0.
Percent hemolysis was calculated as follows: (OD540peptide/OD540H2O)×100%.

[2] = test system: Escherichia coli ATCC 25922
Experimental: as §1
(§2) Colonies of the microorganisms were diluted in saline (0.85%, NaCl) and adjusted using a McFarland reader (bioMérieux SA, Marcy-l'Etoile, France) to 0.5 McFarland standard. Subsequently, the bacterial suspension was diluted in Mueller-Hinton II (MHII, cation adjusted) broth to give approximately 5×10^5 colony forming units (CFU/mL).
(§3) 10^6 colony forming units (CFU)/mL. Aliquots (90 μl) of inoculate were added to 10 μl of water+P-80 (Polysorbate 80, 0.002% final concentration) containing the peptide in serial two-fold dilutions at 10 fold final concentration. The following microorganisms were used to determine antibiotic selectivity of the peptides: Escherichia coli ATCC 25922, Escherichia coli MCR-1 Af 45 and Klebsiella pneumoniae SSI3010.

[3] = test system: Escherichia coli MCR-1 Af 45; details: Mueller-Hinton broth II, no visible growth after 18-20 hours at 35° C.
Experimental: as §1, §2, §3

[4] = test system: Klebsiella pneumoniae SSI3010
Experimental: as §1, §2, §3

[5] = Mueller-Hinton broth II, no visible growth after 18-20 hours at 35° C.

**Q.** For `CC[C@H](C)[C@H](NC(=O)[C@@H](NC(=O)[C@@H]1C[C@@H](O)CN1C(=O)[C@@H](N)C(C)C)[C@@H](C)CC)C(=O)N[C@@H](Cc1ccc(O)cc1)C(=O)N[C@@H]1C(=O)N[C@@H](CC(N)=O)C(=O)N[C@@H](CCCNC(=N)N)C(=O)N[C@@H](CCN)C(=O)N[C@@H](CO)C(=O)N[C@H](CCN)C(=O)N[C@@H]([C@@H](C)CC)C(=O)N[C@H](C(=O)N[C@@H](CCN)C(=O)N[C@@H](CCN)C(=O)N[C@@H](Cc2ccc(O)cc2)C(=O)O)CSSC1(C)C` [Example 84, Val-Hyp-Ile-Ile-Tyr-Pen-Asn-Arg-Dab-Ser-^DDab-Ile-Cys-Dab-Dab-Tyr] (HELM PEPTIDE1{V.[Hyp].I.I.Y.[Pen].N.R.[Dab].S.[NCC[C@@H](N[*:1])C(=O)[*:2]].I.C.[Dab].[Dab].Y}$PEPTIDE1,PEPTIDE1,6:R3-13:R3$$$V2.0), which “Hemolysis at 0.2 g/L” value [1] is on record?
**A.** <1%

**Q.** And the “Escherichia coli ATCC 25922 MIC” value ([2]; ATCC 25922)?
**A.** 0.25 mg/L

**Q.** And the “Escherichia coli MCR-1 Af 45 MIC” value [3]?
**A.** 0.25 mg/L

**Q.** What about the “Klebsiella pneumoniae SSI3010 MIC” value ([4]; SSI3010) of the same compound?
**A.** 0.5 mg/L

**Q.** Which “Hemolysis at 0.2 g/L” value [1] does the source give for `CC[C@H](C)[C@H](NC(=O)[C@@H](NC(=O)[C@@H]1C[C@@H](O)CN1C(=O)[C@@H](NC(=N)N)C(C)C)[C@@H](C)CC)C(=O)N[C@@H](Cc1ccc(O)cc1)C(=O)N[C@@H]1C(=O)N[C@@H](CC(N)=O)C(=O)N[C@@H](CCCNC(=N)N)C(=O)N[C@@H](CCN)C(=O)N[C@@H]([C@@H](C)O)C(=O)N[C@H](CCN)C(=O)N[C@@H](CCCCN)C(=O)N[C@H](C(=O)N[C@@H](CCN)C(=O)N[C@@H](CCCNC(=N)N)C(=O)N[C@@H](Cc2ccc(O)cc2)C(=O)O)CSSC1(C)C` [Example 56, Gua-Val-Hyp-Ile-Ile-Tyr-Pen-Asn-Arg-Dab-Thr-^DDab-Lys-Cys-Dab-Arg-Tyr] (HELM PEPTIDE1{[CC(C)[C@H](NC(=N)N)C(=O)[*:2]].[Hyp].I.I.Y.[Pen].N.R.[Dab].T.[NCC[C@@H](N[*:1])C(=O)[*:2]].K.C.[Dab].R.Y}$PEPTIDE1,PEPTIDE1,6:R3-13:R3$$$V2.0) here?
**A.** 0%

**Q.** And the “Escherichia coli ATCC 25922 MIC” value [2, 5]?
**A.** 0.03125 mg/L

**Q.** And the “Klebsiella pneumoniae SSI3010 MIC” value [4, 5]?
**A.** 0.0625 mg/L

**Q.** With `CC[C@H](C)[C@H](NC(=O)[C@@H](NC(=O)[C@@H]1C[C@@H](O)CN1C(=O)[C@@H](N)C(C)C)[C@@H](C)CC)C(=O)N[C@@H](Cc1ccc(O)cc1)C(=O)N[C@@H]1C(=O)N[C@@H](CC(N)=O)C(=O)N[C@@H](CCCNC(=N)N)C(=O)N[C@@H](CCN)C(=O)N[C@@H](CO)C(=O)N[C@H](CCN)C(=O)N[C@@H](CCCCN)C(=O)N[C@H](C(=O)N[C@@H](CCN)C(=O)N[C@@H](CCCN)C(=O)N[C@@H](Cc2ccc(O)cc2)C(=O)O)CSSC1(C)C` [Example 86, Val-Hyp-Ile-Ile-Tyr-Pen-Asn-Arg-Dab-Ser-^DDab-Lys-Cys-Dab-Orn-Tyr] (HELM PEPTIDE1{V.[Hyp].I.I.Y.[Pen].N.R.[Dab].S.[NCC[C@@H](N[*:1])C(=O)[*:2]].K.C.[Dab].[Orn].Y}$PEPTIDE1,PEPTIDE1,6:R3-13:R3$$$V2.0) as the compound, how does the “Hemolysis at 0.2 g/L” value [1] read?
**A.** <1%

**Q.** And the “Escherichia coli ATCC 25922 MIC” value ([2]; ATCC 25922)?
**A.** 0.125 mg/L

**Q.** What about the “Escherichia coli MCR-1 Af 45 MIC” value [3] of the same compound?
**A.** 0.0625 mg/L

**Q.** And the “Klebsiella pneumoniae SSI3010 MIC” value ([4]; SSI3010)?
**A.** 0.25 mg/L

**Q.** Which results are given for `CCCC[C@H](NC(=O)[C@H](CCCNC(=N)N)NC(=O)[C@H](CCN)NC(=O)[C@@H]1CSSC(C)(C)[C@H](NC(=O)[C@H](Cc2ccc(O)cc2)NC(=O)[C@@H](NC(=O)[C@@H](NC(=O)[C@@H]2C[C@@H](N)CN2C(=O)[C@@H](N)C(C)C)[C@@H](C)CC)[C@@H](C)CC)C(=O)N[C@@H](CC(N)=O)C(=O)N[C@@H](CCCNC(=N)N)C(=O)N[C@@H](CCCNC(=N)N)C(=O)N[C@@H]([C@@H](C)O)C(=O)N[C@H](CCN)C(=O)N[C@@H](CCCCN)C(=O)N1)C(=O)O` [Example 2, Val-Pro((4R)NH2)-Ile-Ile-Tyr-Pen-Asn-Arg-Arg-Thr-^DDab-Lys-Cys-Dab-Arg-Nle] (HELM PEPTIDE1{V.[N[C@@H]1C[C@@H](C(=O)[*:2])N([*:1])C1].I.I.Y.[Pen].N.R.R.T.[NCC[C@@H](N[*:1])C(=O)[*:2]].K.C.[Dab].R.[Nle]}$PEPTIDE1,PEPTIDE1,6:R3-13:R3$$$V2.0)?
**A.** Hemolysis at 0.2 g/L [1]: 0%; Escherichia coli ATCC 25922 MIC [2, 5]: 0.0625 mg/L; Klebsiella pneumoniae SSI3010 MIC [4, 5]: 0.125 mg/L

**Q.** `CC[C@H](C)[C@H](NC(=O)[C@@H](NC(=O)[C@@H]1C[C@@H](O)CN1C(=O)[C@@H](N)C(C)C)[C@@H](C)CC)C(=O)N[C@@H](Cc1ccc(O)cc1)C(=O)N[C@@H]1C(=O)N[C@@H](CC(N)=O)C(=O)N[C@@H](CCCNC(=N)N)C(=O)N[C@@H](CCN)C(=O)N[C@@H]([C@@H](C)O)C(=O)N[C@H](CCN)C(=O)N[C@@H](CCCCN)C(=O)N[C@H](C(=O)N[C@@H](CCN)C(=O)N[C@@H](CCCNC(=N)N)C(=O)N[C@@H](Cc2ccc(O)cc2)C(=O)O)CSSC1(C)C` [Example 14, Val-Hyp-Ile-Ile-Tyr-Pen-Asn-Arg-Dab-Thr-^DDab-Lys-Cys-Dab-Arg-Tyr] (HELM PEPTIDE1{V.[Hyp].I.I.Y.[Pen].N.R.[Dab].T.[NCC[C@@H](N[*:1])C(=O)[*:2]].K.C.[Dab].R.Y}$PEPTIDE1,PEPTIDE1,6:R3-13:R3$$$V2.0) was tested. Which “Hemolysis at 0.2 g/L” value [1] did it give?
**A.** 0%

**Q.** And the “Escherichia coli ATCC 25922 MIC” value [2, 5]?
**A.** 0.125 mg/L

**Q.** And the “Klebsiella pneumoniae SSI3010 MIC” value ([4]; SSI3010)?
**A.** 0.25 mg/L

**Q.** Which “Hemolysis at 0.2 g/L” value [1] does the source give for `CC[C@H](C)[C@H](NC(=O)[C@@H](NC(=O)[C@@H]1CCCN1C(=O)[C@@H](N)C(C)C)[C@@H](C)CC)C(=O)N[C@@H](Cc1ccc(O)cc1)C(=O)N[C@@H]1C(=O)N[C@@H](CC(N)=O)C(=O)N[C@@H](CCCNC(=N)N)C(=O)N[C@@H](CCN)C(=O)N[C@@H]([C@@H](C)O)C(=O)N[C@H](CCN)C(=O)N[C@@H](CCCCN)C(=O)N[C@H](C(=O)N[C@@H](CCN)C(=O)N[C@@H](CCCNC(=N)N)C(=O)N[C@@H](Cc2ccc(O)cc2)C(=O)O)CSSC1(C)C` [Example 7, Val-Pro-Ile-Ile-Tyr-Pen-Asn-Arg-Dab-Thr-^DDab-Lys-Cys-Dab-Arg-Tyr] (HELM PEPTIDE1{V.P.I.I.Y.[Pen].N.R.[Dab].T.[NCC[C@@H](N[*:1])C(=O)[*:2]].K.C.[Dab].R.Y}$PEPTIDE1,PEPTIDE1,6:R3-13:R3$$$V2.0) here?
**A.** 0%

**Q.** What about the “Escherichia coli ATCC 25922 MIC” value [2, 5] of the same compound?
**A.** 0.0625 mg/L

**Q.** What about the “Klebsiella pneumoniae SSI3010 MIC” value [4, 5] of the same compound?
**A.** 0.125 mg/L

**Q.** With `CC[C@H](C)[C@H](NC(=O)[C@@H](NC(=O)[C@@H]1CCCN1C(=O)[C@@H](NC(=N)N)C(C)C)[C@@H](C)CC)C(=O)N[C@@H](Cc1ccc(O)cc1)C(=O)N[C@@H]1C(=O)N[C@@H](CC(N)=O)C(=O)N[C@@H](CCCNC(=N)N)C(=O)N[C@@H](CCN)C(=O)N[C@@H]([C@@H](C)O)C(=O)N[C@H](CCN)C(=O)N[C@@H](CCCCN)C(=O)N[C@H](C(=O)N[C@@H](CCN)C(=O)N[C@@H](CCCNC(=N)N)C(=O)N[C@@H](Cc2ccc(O)cc2)C(=O)O)CSSC1(C)C` [Example 54, Gua-Val-Pro-Ile-Ile-Tyr-Pen-Asn-Arg-Dab-Thr-^DDab-Lys-Cys-Dab-Arg-Tyr] (HELM PEPTIDE1{[CC(C)[C@H](NC(=N)N)C(=O)[*:2]].P.I.I.Y.[Pen].N.R.[Dab].T.[NCC[C@@H](N[*:1])C(=O)[*:2]].K.C.[Dab].R.Y}$PEPTIDE1,PEPTIDE1,6:R3-13:R3$$$V2.0) as the compound, how does the “Hemolysis at 0.2 g/L” value [1] read?
**A.** 0%

**Q.** And the “Escherichia coli ATCC 25922 MIC” value [2, 5]?
**A.** 0.125 mg/L

**Q.** What about the “Klebsiella pneumoniae SSI3010 MIC” value [4, 5] of the same compound?
**A.** 0.125 mg/L
